Each block holds one molecule with its values, some of them ahead of it.
How the values were obtained:
HT-1080 [1] = test: Decrease in UPA expression in human HT1080 cells; type: functional, cell-based
MDA-MB-231 = test: Increase in MMP3 level in human MDA-MB-231 cells after 24 hrs by ELISA; type: functional, cell-based; details: MDA-MB-231, 24 h
SK-OV-3 = test: Cell cycle arrest in human SKOV3 cells assessed as accumulation at G1 phase at 15 umol/L after 24 hrs by propidium iodide staining-based assay (reference value: 58.1%); type: functional
HT-1080 [2] = test: Induction of DNA damage in human HT1080 cells assessed as formation of DNA breaks at 50 ug/ml by comet assay relative to control; type: functional
ASPC1 = test: Antitumor activity against human Aspc-1 cells xenografted in athymic nude mouse assessed as reduction in tumor volume at 5 mg/kg after 35 days relative to control; type: functional; details: ASPC1, 840 h
Tubulin = test: Inhibition of tubulin polymerization (unknown origin); type: protein-complex assay, Homo sapiens
K562 = test: Induction of apoptosis in human K562; type: functional, cell-based
[3] = Inhibition of cell invasion in human […] cells at 4 nmol/L after 24 hrs by crystal violet staining based transwell assay relative to control; type: functional
MIA PaCa-2 = test: Cytotoxicity against human MIAPaCa2 cells after 48 hrs by MTT assay; type: functional, cell-based; details: MIA PaCa-2, 48 h
HT-144 [4] = test: Cytotoxicity against human HT144 cells after 48 hrs by MTT assay; type: functional, cell-based; details: HT-144, 48 h
NCI-H460 = test: Cytotoxicity against human H460 cells after 48 hrs by MTT assay; type: functional, cell-based; details: NCI-H460, 48 h
HT-144 [5] = test: Cytotoxicity against human HT144 cells after 24 hrs by MTT assay; type: functional, cell-based; details: HT-144, 24 h
[6] = Cytotoxicity against human WRO cells at 5 umol/L after 72 hrs by MTS assay relative to control; type: functional
MCF7R = test: Cytotoxicity against human MCF7/R cells at 5 umol/L after 72 hrs by MTS assay relative to control; type: functional
[7] = Cytotoxicity against human WRO cells after 72 hrs in presence of curcumin by MTS assay relative to control; type: functional
[8] = Cytotoxicity against human WRO cells at 10 uM after 72 hrs by MTS assay relative to control; type: functional
T47D = test: Cytotoxicity against human T47D cells; type: functional, cell-based
HeLa = test: Cytotoxicity against human HeLa cells; type: functional, cell-based
HT-29 [9] = test: Cytotoxicity against human HT-29 cells; type: functional, cell-based
DLD-1 = test: Cytotoxicity against human DLD1 cells; type: functional, cell-based
SW480 = test: Cytotoxicity against human SW480 cells after 4 hrs by MTT assay; type: functional, cell-based; details: SW480, 4 h
Hep 3B2 = test: Cytotoxicity against human Hep3B cells; type: functional, cell-based
[10] = Cytotoxicity against […] cells by MTT assay; type: functional, cell-based
WiDr = test: Cytotoxicity against human WiDr cells after 4 hrs by MTT assay; type: functional, cell-based
BT-474 = test: Cytotoxicity against human BT474 cells; type: functional, cell-based
KM12 = test: Cytotoxicity against human KM12 cells after 4 hrs by MTT assay; type: functional, cell-based; details: KM12, 4 h
[11] = Cytotoxicity against human SW116 cells after 4 hrs by MTT assay; type: functional, cell-based; details: SW116, 4 h
[12] = Cytotoxicity against human HPL1D cells; type: functional, cell-based
HT-29 [13] = test: Cytotoxicity against human HT-29 cells after 4 hrs by MTT assay; type: functional, cell-based; details: HT-29, 4 h
Colon 26 = test: Cytotoxicity against mouse Colon 26 cells after 4 hrs by MTT assay; type: functional, cell-based; details: Colon 26, 4 h
CCD-841CoN = test: Cytotoxicity against human CRL1790 cells; type: functional, cell-based
HaCaT = test: Cytotoxicity against human HaCaT cells; type: functional, cell-based
EL4 = test: Induction of apoptosis in mouse EL4 cells at 50 umol/L after 72 hrs relative to control; type: functional
MCF7 [14] = test: Cytotoxicity against human MCF7 cells; type: functional, cell-based
MCF7 [15] = test: Anti-invasive activity against human MCF7 cells at 100 umol/L after 12 hrs by giemsa staining based light microscopic analysis relative to control; type: functional
[16] = target: Fibroblast growth factor receptor 2 (Homo sapiens) (UniProt P21802); test: Inhibition of FGFR2 (unknown origin) relative to control; details: concentration not given here
[17] = target: Fibroblast growth factor receptor 1 (Homo sapiens) (UniProt P11362); test: Inhibition of FGFR1 (unknown origin) relative to control; details: concentration not given here
TT = test: Cytotoxicity against human TT cells by trypan blue dye-based assay; type: functional, cell-based
DU-145 [18] = test: Potentiation of PTX-induced anticancer activity in human DU145 cells assessed as reduction in PTX IC50 (reference value: 13.5 nmol/L); type: functional, cell-based
PC-3 = test: Cytotoxicity against human PC3 cells; type: functional, cell-based
DU-145 [19] = test: Cytotoxicity against human DU145 cells; type: functional, cell-based

Sequence of Fibroblast growth factor receptor 2 (Homo sapiens) (P21802 22-821 limits assumed): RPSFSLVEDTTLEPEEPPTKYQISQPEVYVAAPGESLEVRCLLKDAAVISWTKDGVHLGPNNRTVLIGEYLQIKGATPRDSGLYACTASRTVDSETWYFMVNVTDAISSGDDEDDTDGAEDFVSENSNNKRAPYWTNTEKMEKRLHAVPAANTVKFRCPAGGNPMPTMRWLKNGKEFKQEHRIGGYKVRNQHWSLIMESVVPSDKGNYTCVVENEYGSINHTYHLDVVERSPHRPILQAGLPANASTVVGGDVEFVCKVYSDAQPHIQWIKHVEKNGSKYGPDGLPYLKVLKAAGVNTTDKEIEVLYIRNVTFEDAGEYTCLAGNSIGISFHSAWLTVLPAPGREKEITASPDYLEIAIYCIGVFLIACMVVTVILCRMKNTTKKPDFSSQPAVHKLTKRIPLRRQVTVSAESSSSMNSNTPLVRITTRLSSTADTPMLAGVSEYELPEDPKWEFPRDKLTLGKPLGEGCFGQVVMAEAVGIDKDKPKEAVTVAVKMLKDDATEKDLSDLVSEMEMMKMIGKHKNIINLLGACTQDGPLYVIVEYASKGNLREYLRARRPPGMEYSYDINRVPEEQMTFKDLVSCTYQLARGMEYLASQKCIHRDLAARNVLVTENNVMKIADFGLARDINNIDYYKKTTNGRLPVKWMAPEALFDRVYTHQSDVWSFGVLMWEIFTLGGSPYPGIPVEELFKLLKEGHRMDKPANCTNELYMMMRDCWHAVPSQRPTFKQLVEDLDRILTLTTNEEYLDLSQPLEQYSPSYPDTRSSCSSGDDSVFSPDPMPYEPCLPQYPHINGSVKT
Sequence of Fibroblast growth factor receptor 1 (Homo sapiens) (P11362 22-822 limits assumed): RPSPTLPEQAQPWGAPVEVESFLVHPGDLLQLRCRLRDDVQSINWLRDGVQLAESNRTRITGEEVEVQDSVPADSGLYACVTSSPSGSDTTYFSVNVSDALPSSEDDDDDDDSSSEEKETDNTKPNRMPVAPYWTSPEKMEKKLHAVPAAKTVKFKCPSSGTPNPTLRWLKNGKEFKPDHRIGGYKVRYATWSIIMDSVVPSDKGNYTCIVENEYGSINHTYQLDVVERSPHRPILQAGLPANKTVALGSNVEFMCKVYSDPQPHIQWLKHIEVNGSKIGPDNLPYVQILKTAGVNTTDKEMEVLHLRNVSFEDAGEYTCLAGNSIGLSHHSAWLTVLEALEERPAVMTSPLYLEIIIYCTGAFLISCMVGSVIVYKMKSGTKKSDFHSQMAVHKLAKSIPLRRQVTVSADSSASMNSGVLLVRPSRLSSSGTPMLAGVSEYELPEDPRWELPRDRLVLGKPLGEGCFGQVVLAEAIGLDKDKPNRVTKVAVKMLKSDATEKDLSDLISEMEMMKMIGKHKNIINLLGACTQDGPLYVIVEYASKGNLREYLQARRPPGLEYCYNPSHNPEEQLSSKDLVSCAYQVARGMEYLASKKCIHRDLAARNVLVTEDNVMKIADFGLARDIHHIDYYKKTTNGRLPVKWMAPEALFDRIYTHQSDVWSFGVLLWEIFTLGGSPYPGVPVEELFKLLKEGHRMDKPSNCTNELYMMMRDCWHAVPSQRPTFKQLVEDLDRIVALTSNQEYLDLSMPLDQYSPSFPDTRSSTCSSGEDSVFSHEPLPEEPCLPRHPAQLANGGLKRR

- IC50 (HT-1080 [1]): 7 µM
- IC50 (MDA-MB-231): 11 µM
SMILES: O=C(/C=C/c1ccc(O)cc1)CC(=O)/C=C/c1ccc(O)cc1 [BISDEMETHOXYCURCUMIN]
- Activity (SK-OV-3): 79.7%

SMILES: O=C(O)/C=C/c1ccc(O)c(O)c1 [CAFFEIC ACID]
- Activity (HT-1080 [2]): 85%

SMILES: COc1cc(CNC(=O)CCCC/C=C/C(C)C)ccc1O [CAPSAICIN]
- inhibition in vivo at 5 mg/kg (ASPC1): 73%

- IC50 (Tubulin): 620 µM
- IC50 (K562): 4.3 µM
SMILES: O=C(/C=C/c1ccccc1)c1ccccc1 [CHALCONE]

SMILES: O=C(O)/C=C/c1ccccc1 [CINNAMIC ACID]
- inhibition at 0.004 µM [3]: 60%
- IC50 (MIA PaCa-2): 1.33 µM
- IC50 (HT-144 [4]): 1.07 µM
- IC50 (NCI-H460): 2.1 µM
- IC50 (HT-144 [5]): 2.4 µM

SMILES: COc1cc(/C=C/c2cc(/C=C/c3ccc(O)c(OC)c3)[nH]n2)ccc1O [CURCUMIN PYRAZOLE]
- inhibition at 5 µM [6]: 48.9%
- inhibition at 5 µM (MCF7R): 52.8%
- inhibition (INH) [7]: 41%
- inhibition at 10 µM [8]: 48.2%

- IC50 (HT-1080 [1]): 10 µM
SMILES: COc1cc(/C=C/C(=O)CC(=O)/C=C/c2ccc(O)c(OC)c2)ccc1O [CURCUMIN]
- IC50 (T47D): 11 µM
- IC50 (HeLa): 8.2 µM
- IC50 (HT-29 [9]): 132 µM
- IC50 (DLD-1): 146 µM
- IC50 (SW480): 17.9 µM
- IC50 (Hep 3B2): 10 µM
- IC50 [10]: 8.5 µM
- IC50 (WiDr): 26.8 µM
- IC50 (BT-474): 11 µM
- IC50 (KM12): 16 µM
- IC50 [11]: 27.5 µM
- IC50 [12]: 16 µM
- IC50 (HT-29 [13]): 20.7 µM
- IC50 (Colon 26): 30.3 µM
- IC50 (CCD-841CoN): 105 µM
- IC50 (HaCaT): 13 µM
- Activity (EL4): 95%
- IC50 (MCF7 [14]): 19.9 µM

SMILES: O=C(CC(=O)c1ccccc1)c1ccccc1 [DIBENZOYLMETHANE]
- Activity (MCF7 [15]): 84%

- inhibition [16]: 64%
- inhibition [17]: 92%
SMILES: COc1cc(/C=C/C(=O)O)ccc1O [FERULATE]
- IC50 (TT): 150 µM

- IC50 (DU-145 [18]): 0.0055 µM
SMILES: C/C1=C\CC(C)(C)/C=C/C(=O)/C(C)=C/CC1 [ZERUMBONE]
- IC50 (PC-3): 9.1 µM
- IC50 (DU-145 [19]): 6.9 µM
